In US20190010158A1, “ANTITUMOR EFFECT POTENTIATOR COMPRISING PYRROLOPYRIMIDINE COMPOUND” (TAIHO PHARMACEUTICAL CO., LTD, priority 2015, published 2019):
One block for each compound: values may come before it.

How the values were obtained:
[1] = tested on: tumor cell line shown in Table 38; test: Example 9: combined use with BCL-2 inhibitor, cell growth inhibition test (IC50 ratio, CI); format: cell-based; settings: MOLT-4; for CI: at ED50
[2] = tested on: Human multiple myeloma (MM) KMS-26 cell lines; test: Example 16: tumor growth inhibition in mice, combinational treatment with bortezomib; format: in vivo; settings: KMS-26 in mice; 1 mg/kg/day, days 1, 4, 8, 11; day 15
From the text: (§1) The test ended on day 15.
A necessary amount of the test compound was weighed to prepare a solution to administer to the mice.
(§2) RTVn=TVn/TV1 (equation D)
(§3) BWCn (%)=(BWn−BW1)/BW1×100 (equation F)

U266B1 = test: Example 1: combined use with proteasome inhibitor, cell growth inhibition test (IC50 ratio, CI), U266B1; format: cell-based, human; settings: for CI: at ED50
[3] = tested on: tumor cell lines shown in Table 58; test: Example 22: combined use with IAP antagonist, cell growth inhibition test (IC50 ratio, CI); format: cell-based; settings: HL-60; for CI: at ED50
[4] = tested on: tumor cell line shown in Table 36; test: Example 8: combined use with BTK inhibitor, cell growth inhibition test (IC50 ratio, CI); format: cell-based; settings: MV-4-11; for CI: at ED50
[5] = tested on: tumor cell line shown in Table 34; test: Example 7: combined use with Exportin-1 inhibitor, cell growth inhibition test (IC50 ratio, CI); format: cell-based; settings: HCT116; for CI: at ED50
carbonic anhydrase II = carbonic anhydrase II (Homo sapiens, UniProt P00918); settings: background art, Non-patent Literature 8; cited from earlier work
[6] = background art, Non-patent Literature 7; decrease in plasma concentration; cited from earlier work
[7] = tested on: tumor cell line shown in Table 28; test: Example 4: combined use with PARP inhibitor, cell growth inhibition test (IC50 ratio, CI); format: cell-based; settings: A549; for CI: at ED50
[8] = tested on: human acute myelogenous leukemia (AML) THP-1 cell lines; test: Example 21: tumor growth inhibition in mice, combinational treatment with azacytidine; format: in vivo; settings: THP-1 in mice; intraperitoneally 20 mg/kg/day, days 1, 4, 8, 11, 15, 18; day 22
From the text: as §2, §3
The test ended on day 22.

[9] = tested on: tumor cell lines shown in Table 24; test: Example 2: combined use with tyrosine kinase inhibitor, cell growth inhibition test (IC50 ratio, CI); format: cell-based; settings: MOLT-4; for CI: at ED50
[10] = tested on: human acute myelogenous leukemia (AML) MV-4-11 cell lines; test: Example 17: tumor growth inhibition in mice, combinational treatment with gilteritinib; format: in vivo; settings: MV-4-11 in mice; orally 3 mg/kg/day, days 1-14; day 15
From the text: as §2, §3, §1

[11] = IC50 of Reference Example Compound 55 : IC50 of other compound = 1:value
[12] = Reference Example Compound 55:other compound 1:60
[13] = combined use with Reference Example Compound 55

SMILES: C=CC(=O)N1CCC[C@@H](n2nc(-c3ccc(Oc4ccccc4)cc3)c3c(N)ncnc32)C1 [Ibrutinib, ibrutinib]
- IC50 Ratio [4, 11]: 140
- CI ([4]; Reference Example Compound 55:other compound 1:111): 0.70
- CI ([4]; Reference Example Compound 55:other compound 1:333): 0.72

SMILES: NS(=O)(=O)OC[C@@H]1C[C@@H](n2ccc3c(N[C@H]4CCc5ccccc54)ncnc32)C[C@@H]1O [MLN4924, N-[(1S)-1-indanyl]-7-[(1R)-3α-hydroxy-4α-(sulfamoyloxymethyl)cyclopentyl]-7H-pyrrolo[2,3-d]pyrimidin-4-amine]
- inhibition of carbonic anhydrase II activity (carbonic anhydrase II): inhibits the activity
- transfer of administered drug to red blood cells in the blood [6]: transferred to red blood cells

SMILES: Nc1ncn([C@@H]2O[C@H](CO)[C@@H](O)[C@H]2O)c(=O)n1 [azacytidine]
- BWC22 (%) Mean ± SD [8]: 3.6 ± 4.5%
- RTV22 Mean ± SD [8]: 8.8 ± 2.0
- T/C22 (%) [8]: 45%

SMILES: CCc1nc(C(N)=O)c(Nc2ccc(N3CCC(N4CCN(C)CC4)CC3)c(OC)c2)nc1NC1CCOCC1 [gilteritinib]
- CI ([9]; Reference Example Compound 55:other compound 1:20): 0.96
- CI [9, 12]: 0.88
- Comprehensive Evaluation [9, 13]: Additive (0.9-1.10)
- BWC15 (%) Mean ± SD [10]: 5.8 ± 3.0%
- RTV15 Mean ± SD [10]: 1.9 ± 0.5
- T/C15 (%) [10]: 41%

Continued, in another order:

- IC50 Ratio [1, 11]: 119
SMILES: CC1(C)CCC(CN2CCN(c3ccc(C(=O)NS(=O)(=O)c4ccc(NCC5CCOCC5)c([N+](=O)[O-])c4)c(Oc4cnc5[nH]ccc5c4)c3)CC2)=C(c2ccc(Cl)cc2)C1 [ABT-199]
- CI [1, 12]: 0.37
- CI ([1]; Reference Example Compound 55:other compound 1:180): 0.40
- Comprehensive Evaluation [1, 13]: Synergism (0.3-0.7)

- IC50 Ratio (U266B1; [11]): 0.05
SMILES: CC(C)C[C@H](NC(=O)[C@H](Cc1ccccc1)NC(=O)c1cnccn1)B(O)O [Bortezomib, bortezomib]
- BWC15 (%) Mean ± SD [2]: 1.3 ± 3.2%
- RTV15 Mean ± SD [2]: 6.9 ± 3.2
- T/C15 (%) [2]: 66%
- CI (U266B1; Reference Example Compound 55:other compound 1:0.02): 0.56
- CI (U266B1; Reference Example Compound 55:other compound 1:0.07): 0.51
- Comprehensive Evaluation (U266B1; [13]): Synergism (0.3-0.7)

- IC50 Ratio [3, 11]: 2122
SMILES: CN[C@@H](C)C(=O)N[C@H](C(=O)N1CCC[C@H]1C(=O)Nc1snnc1-c1ccccc1)C1CCCCC1 [GDC-0152]
- CI ([3]; Reference Example Compound 55:other compound 1:90): 0.45
- CI ([3]; Reference Example Compound 55:other compound 1:270): 0.62
- Comprehensive Evaluation [3, 13]: Synergism (0.3-0.7)

- IC50 Ratio [5, 11]: 21
SMILES: O=C(/C=C\n1cnc(-c2cc(C(F)(F)F)cc(C(F)(F)F)c2)n1)NNc1cnccn1 [KPT-330]
- CI ([5]; Reference Example Compound 55:other compound 1:11): 0.69
- CI ([5]; Reference Example Compound 55:other compound 1:33): 0.75
- Comprehensive Evaluation [5, 13]: Moderate

- IC50 Ratio [7, 11]: 21
SMILES: O=C(c1cc(Cc2n[nH]c(=O)c3ccccc23)ccc1F)N1CCN(C(=O)C2CC2)CC1 [Olaparib, olaparib]
- CI ([7]; Reference Example Compound 55:other compound 1:10): 0.61
- CI ([7]; Reference Example Compound 55:other compound 1:30): 0.69
- Comprehensive Evaluation [7, 13]: Synergism (0.3-0.7)
